By EC50 is commonly meant the midpoint of the concentration-response curve. One may read the IC50 as the midpoint of a concentration-inhibition curve. Low values mean higher potency, high ones lower potency.

Test [1] concerns the target T1, Estrogen receptor beta (Homo sapiens, UniProt Q92731).
Description: Agonist activity at human recombinant ERbeta expressed in HEK293 cells by transactivation assay
The target of test [2] is T2, Estrogen receptor (Homo sapiens, UniProt P03372).
T2 sequence (P03372 whole entry): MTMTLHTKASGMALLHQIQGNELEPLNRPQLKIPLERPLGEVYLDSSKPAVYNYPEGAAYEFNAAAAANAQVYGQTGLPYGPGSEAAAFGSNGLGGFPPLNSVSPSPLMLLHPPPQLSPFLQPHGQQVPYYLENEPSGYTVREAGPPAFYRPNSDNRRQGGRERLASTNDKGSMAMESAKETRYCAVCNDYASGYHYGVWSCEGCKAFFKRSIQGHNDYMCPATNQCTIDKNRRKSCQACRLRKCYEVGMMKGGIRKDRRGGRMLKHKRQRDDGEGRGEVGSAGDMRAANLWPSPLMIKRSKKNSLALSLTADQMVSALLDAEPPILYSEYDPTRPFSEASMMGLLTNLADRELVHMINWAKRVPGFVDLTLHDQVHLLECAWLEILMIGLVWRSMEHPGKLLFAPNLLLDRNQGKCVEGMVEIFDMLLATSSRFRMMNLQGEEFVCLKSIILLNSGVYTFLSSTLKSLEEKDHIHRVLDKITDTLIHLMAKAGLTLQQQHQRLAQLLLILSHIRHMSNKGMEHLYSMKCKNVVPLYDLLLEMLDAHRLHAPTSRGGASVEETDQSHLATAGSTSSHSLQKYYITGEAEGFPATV
Description: Binding affinity to human recombinant ERalpha by scintillation proximity assay

The target in test [3] is T1, Estrogen receptor beta. This is another data set of the same source.
Description: Binding affinity to human recombinant ERbeta by scintillation proximity assay
In test [4] the target is T2, Estrogen receptor. This is another data set of the same source.
Description: Agonist activity at human recombinant ERalpha expressed in HEK293 cells by transactivation assay
For test [5], the target named is T3, Androgen receptor (Homo sapiens, UniProt P10275).
T3 sequence (P10275 whole entry): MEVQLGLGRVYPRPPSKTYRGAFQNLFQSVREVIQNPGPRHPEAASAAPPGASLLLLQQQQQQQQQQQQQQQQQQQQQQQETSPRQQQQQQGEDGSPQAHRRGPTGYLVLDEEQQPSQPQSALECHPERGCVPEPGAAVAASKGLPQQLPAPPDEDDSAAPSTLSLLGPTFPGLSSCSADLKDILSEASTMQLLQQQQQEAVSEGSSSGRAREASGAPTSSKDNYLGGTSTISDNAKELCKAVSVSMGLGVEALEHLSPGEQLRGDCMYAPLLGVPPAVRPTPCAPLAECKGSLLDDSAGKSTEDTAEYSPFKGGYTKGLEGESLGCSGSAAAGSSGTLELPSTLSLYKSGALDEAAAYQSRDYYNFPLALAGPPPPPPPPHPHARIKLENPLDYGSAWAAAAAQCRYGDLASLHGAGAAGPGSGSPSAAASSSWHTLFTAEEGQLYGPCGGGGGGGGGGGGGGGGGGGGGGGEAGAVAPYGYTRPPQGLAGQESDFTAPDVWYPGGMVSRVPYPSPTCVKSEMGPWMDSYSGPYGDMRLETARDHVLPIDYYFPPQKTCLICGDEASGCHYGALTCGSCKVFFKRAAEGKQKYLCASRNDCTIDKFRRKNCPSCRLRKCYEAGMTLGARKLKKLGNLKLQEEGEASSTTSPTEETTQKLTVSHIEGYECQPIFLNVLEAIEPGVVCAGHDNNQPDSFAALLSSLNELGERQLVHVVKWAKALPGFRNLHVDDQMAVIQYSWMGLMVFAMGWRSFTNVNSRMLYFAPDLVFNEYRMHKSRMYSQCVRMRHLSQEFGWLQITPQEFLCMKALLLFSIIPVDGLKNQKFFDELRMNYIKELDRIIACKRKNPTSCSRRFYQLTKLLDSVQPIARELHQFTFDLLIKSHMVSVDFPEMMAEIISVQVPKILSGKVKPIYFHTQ
Description: Binding affinity to androgen receptor

T1 sequence (Q92731 whole entry): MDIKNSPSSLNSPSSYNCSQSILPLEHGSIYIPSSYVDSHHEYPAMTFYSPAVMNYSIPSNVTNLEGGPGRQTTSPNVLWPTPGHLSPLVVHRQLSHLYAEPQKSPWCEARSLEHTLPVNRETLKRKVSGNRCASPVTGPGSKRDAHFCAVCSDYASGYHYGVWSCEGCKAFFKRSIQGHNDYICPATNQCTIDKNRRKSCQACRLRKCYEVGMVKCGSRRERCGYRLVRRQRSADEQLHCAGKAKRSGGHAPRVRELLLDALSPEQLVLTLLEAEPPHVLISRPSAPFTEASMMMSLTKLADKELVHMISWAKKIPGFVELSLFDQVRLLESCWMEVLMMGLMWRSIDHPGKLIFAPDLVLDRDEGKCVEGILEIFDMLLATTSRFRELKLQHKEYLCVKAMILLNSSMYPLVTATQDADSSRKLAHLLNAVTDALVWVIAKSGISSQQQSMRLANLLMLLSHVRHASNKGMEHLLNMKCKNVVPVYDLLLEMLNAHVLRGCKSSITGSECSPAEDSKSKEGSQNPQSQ

Turning to `C[C@]12CC[C@H]3[C@@H](CC=C4[C@H]5CC[C@]43CC[C@@H]5O)[C@@H]1CC[C@@H]2O`, the EC50 came to 28 nM in test [1] and 44 nM in test [4]. The IC50 in test [2] was found to be 317 nM; in test [3], 50 nM; in test [5], 1380 nM.
In the case of `C[C@]12CC[C@H]3[C@@H](CC=C4[C@H]5CC[C@]43CC[C@H]5O)[C@@H]1CC[C@@H]2O`, the figures for the EC50 in test [1] and in test [4] were 198 nM and 435 nM, respectively. Further, the IC50 came out at 8130 nM in test [2], 854 nM in test [3] and 1120 nM in test [5].
On the same counts, the results for `C[C@]12CC[C@H]3[C@@H](CC=C4[C@@H]5C(=O)CC[C@@]43C[C@H]5O)[C@@H]1CC[C@@H]2O` are over 1000 nM, over 1000 nM, over 10000 nM, over 10000 nM and over 1000 nM.
Take `C[C@]12CC[C@H]3[C@@H](CC=C4[C@@H]5C(=O)CC[C@@]43C[C@@H]5O)[C@@H]1CC[C@@H]2O`: the concentration for a half-maximal effect (EC50) in test [1] and in test [4] was over 1000 nM in each case. Also, the IC50 in test [2] was over 10000 nM; in test [3], over 10000 nM; in test [5], over 1000 nM.
On to `C[C@]12CC[C@H]3[C@@H](CC=C4C[C@@H]5CC[C@@]43CC(=O)O5)[C@@H]1CC[C@@H]2O`, for which the EC50 in test [1] and in test [4] was over 1000 nM in each case. Besides, the IC50 is over 10000 nM in test [2], over 10000 nM in test [3] and over 1000 nM in test [5].
For the molecule `C=C[C@]12CC[C@H](O)CC1=CC[C@H]1[C@@H]3CC[C@H](O)[C@@]3(C)CC[C@@H]12`, the EC50 was 4 nM in test [1] and 980 nM in test [4]. For the same molecule, in test [2], the midpoint of inhibition, the IC50, lay at 2240 nM.
Take `C/C=C\[C@]12CC[C@H](O)CC1=CC[C@H]1[C@@H]3CC[C@H](O)[C@@]3(C)CC[C@@H]12`: the EC50 amounted to 21 nM in test [1] and 344 nM in test [4]. Moreover, the IC50 in test [2] came out at 1960 nM; in test [3] it was 16 nM; in test [5], 718 nM.
`C=C[C@]12CCC(=O)C=C1CC[C@H]1[C@@H]3CC[C@H](O)[C@@]3(C)CC[C@@H]12` had an IC50 in test [2] of over 10000 nM. The molecule further returned an EC50 in test [4] of over 1000 nM.
On to `C[C@]12CC[C@H]3[C@@H](CC=C4[C@H]5CC=C[C@]43CC[C@@H]5O)[C@@H]1CC[C@@H]2O`, for which the figures for the EC50 in test [1] and in test [4] were 132 nM and 4890 nM, respectively. Besides, the IC50 in test [2] worked out at 2240 nM; in test [3], 157 nM; in test [5] it was 85 nM.
Regarding `CC[C@]12CC[C@H](O)CC1=CC[C@@H]1[C@@H]2CC[C@]2(C)[C@@H](O)CC[C@@H]12`, the IC50 came out at 2330 nM in test [2], 16 nM in test [3] and 88 nM in test [5].
On to `C=CC[C@@H]1C2=CC[C@H]3[C@@H]4CC[C@H](O)[C@@]4(C)CC[C@@H]3[C@@]2(C=C)CC[C@@H]1O`, for which the EC50 in test [1] and in test [4] was over 1000 nM throughout. The results for the IC50 in test [2], in test [3] and in test [5] were over 10000 nM, 3020 nM and 15 nM, respectively.
For `C[C@]12CC[C@H]3[C@@H](CC[C@H]4[C@H]5CCC[C@]43CC[C@@H]5O)[C@@H]1CC[C@@H]2O`, the EC50 came to 219 nM in test [1] and 1300 nM in test [4]. In addition, the values for the IC50 in test [2], in test [3] and in test [5] were 4990 nM, 322 nM and 68 nM, respectively.
On the same counts, the results for `C[C@]12CC[C@H]3[C@@H](CC=C4C[C@@H]5CC[C@@]43CCO5)[C@@H]1CC[C@@H]2O` are 440 nM, over 1000 nM, over 10000 nM, over 10000 nM and 710 nM.
`C[C@]12CC[C@H]3[C@@H](CC=C4[C@H]5CC[C@]43CCC5=O)[C@@H]1CC[C@@H]2O`: the concentration giving a half-maximal response (EC50) in test [1] is 86 nM; in test [4], 407 nM. The IC50 in test [2] is over 10000 nM; in test [3] it was 1460 nM.
For `C[C@]12CC[C@H]3[C@@H](CC4C5=CC(=O)CC[C@@]53C[C@H]4O)[C@@H]1CC[C@@H]2O`, the EC50 in test [1] and in test [4] was over 1000 nM in each case. Besides, the IC50 was over 10000 nM in test [2], over 10000 nM in test [3] and over 1000 nM in test [5].

Values taken from ChEMBL document CHEMBL1139947, “Bridged androstenediol analogs as ER-beta selective SERMs” (Bioorg Med Chem Lett, 2007).
